According to patent US7723072B2, “Polypeptide factor from a thermophilic eubacterial species and use thereof in the production of functional, heterologous proteins in an expression host” (University of Limerick, priority 2003, dated 2010):
Like-named read-outs stand apart in the source and are kept apart here.

Columns and labels:
Type in all cases: cell-based
E. coli JM83 = assay: Minimal inhibitory concentrations (MICs) for metal cations, E. coli JM83; conditions: 40 h at 37° C.
[1] = system: E. coli JM83 containing pUC
[2] = system: E. coli JM83 containing pUC with cloned czrB; assay: Minimal inhibitory concentrations (MICs) for metal cations, JM83 containing pUC with cloned czrB; conditions: clone +pUC-czrB
E. coli cells [3] = assay: Intracellular zinc concentration in E. coli clones (atomic absorption); conditions: 1 h incubation in 0, 1, 2, 5 mM extracellular zinc; vs JM83 and pUC alone
Excerpt: Metal resistances of the type observed with the czrB clones can be the result of metal sequestering or modification of metal transport processes. However, based on reports of CzrB homologues in other organisms it was postulated that the protein CzrB provided resistance to heavy metal ions by an efflux mechanism rather than by metal sequestering. Therefore, the ability of the T. thermophilus CzrB protein to pump zinc ions out of the E. coli cells in which it was expressed was investigated. Intracellular zinc concentrations were measured as follows: E. coli clones were grown at 37° C. in LB medium (100 μg/ml ampicillin, 25 μg/ml streptomycin) in the presence or absence of 165 μM ZnCl2 until an OD600 of 1.0 was reached. After addition of 1, 2 or 5 mM ZnCl2, growth was continued for 30 min, 1 h or 2 h, with control cultures grown in the absence of ZnCl2. […] The zinc concentration was measured in the supernatant using an atomic absorption spectrophotometer (Varian SpectrAA-400 Plus), with standard solutions prepared immediately before use from commercial standards (Fisher Scientific). […] The results are shown in FIG. 3 which depicts a quantification of intracellular zinc levels in E. coli clones: JM83 (“JM83”), JM83 containing pUC (“pUC”), and JM83 containing pUC-czrB without (“czrB”) and with (“czrB (Zn)”) a zinc pre-induction step. […]

E. coli cells [4] = assay: Growth (OD600) of E. coli clones during bacteriophage and recombinant antibody production; conditions: pHB102 phagemid, during phage and antibody production
Description: E. coli cells harbouring the Thermus library were inoculated to an OD600<0.05 in 10 ml 2xYT medium containing tetracycline (15 μg/ml), additional salts (8.6 mM NaCl; 2.5 mM KCl; 10 mM MgCl2) and 0.4% glucose. After 1 h at 37° C., 30 μg/ml chloramphenicol was added, followed by 10^10 pfu of helper phage (VCSM13 helper phage; Stratagene) at an OD600 of 0.5. Incubation at 50° C. for 5 min was followed by the addition of 50 ml 2xYT containing tetracycline, chloramphenicol, additional salts and 0.5 mM isopropyl-β-D-thiogalactoside (IPTG). The culture was shaken at 40° C. for 2 h and, after the addition of 30 μg/ml kanamycin, grown for a further 12-14 h at 40° C. Phage particles were precipitated from culture supernatants by two PEG precipitation steps and resuspended in 1 ml PBS (8 g NaCl, 0.24 g KH2PO4, 1.44 g Na2HPO4, 0.2 g KCl in 1 L, pH 7.4). Immunotubes (Nunc) were coated overnight at 4° C. with 1 μg/ml fluorescein-isothiocyanate coupled to bovine serum albumin (FITC-BSA) (Bothmann, H. and Plückthun, A (1998) supra) in PBS. […]
E. coli cells infected with phage were grown as described in Example 1. The OD600 was read at hourly intervals for the first 8-10 h after induction. […]

E. coli cultures [5] = assay: Phage titers of E. coli clones; conditions: pHB102 vs pHB102-czrB; 10 and 22 h after induction
Description: (§1) Individual clones were analysed by restriction digestion after 22 h of induction to confirm that they contained both the Thermus insert and the recombinant antibody gene. […] Immunoplate wells (Nunc) were coated with 100 μl of FITC-BSA and blocked with 5% skimmed milk in PBST. After washing, 100 μl of phage solutions containing 0.5% skimmed milk were added and incubated for 2 h at 25° C. Phage particles were detected using a peroxidase-conjugated anti-M13 antibody (1:3000 in PBST; Amersham Pharmacia Biotech Inc.) and development was carried out using a BM Blue POD soluble substrate (Roche Diagnostics). After stopping the reaction using 25 μl of 1 N H2SO4, the absorbance was read at 405 nm. […] The results are depicted in FIGS. 6 and 7.
FIG. 6 depicts phage titers of clones expressing czrB. The phage titers of clones containing pHB102 phagemid vector or pHB102-czrB expressed as colony forming units (cfu) were determined 10 and 22 h after induction.

E. coli cultures [6] = assay: Anti-FITC ELISA of phage-displayed functional antibody; conditions: 10 and 22 h after induction
Description: as §1
FIG. 7 depicts ELISA analysis of clones expressing czrB. […] Results are shown for samples taken 10 and 22 h after induction.

E. coli cells [7] = assay: Growth of E. coli with czrB expressed from lac promoter in pUC-based vector; conditions: Plac induction; no bacteriophage, no recombinant antibody
Excerpt: To investigate this theory further, czrB was expressed from a lac promoter in a standard pUC-based expression vector, in the absence of bacteriophage particles and the recombinant antibody used in experiments thus far. […] This raises the possibility that CzrB, in its full length form or as a truncated version, might function as an “universal chaperone”, which would facilitate the expression of any recombinant or heterologous proteins produced in an E. coli host.

[8] = clone +pUC, pre-induction cadmium (80 μM CdCl2)
[9] = clone +pUC, pre-induction cobalt (220 μM CoCl2)
[10] = clone +pUC, pre-induction none, 40 h at 37° C.
[11] = clone +pUC, pre-induction zinc (165 μM ZnCl2)
[12] = pre-induction cadmium (80 μM CdCl2)
[13] = pre-induction cobalt (220 μM CoCl2)
[14] = pre-induction zinc (165 μM ZnCl2)

Question: How did the MIC (E. coli JM83; clone JM83, pre-induction none) turn out when [Cl][Cd][Cl] [Cadmium, CdCl2] was run?
Answer: Its MIC is 900 µM.

Question: And the MIC [1, 8]?
Answer: The MIC was 700 µM.

Question: What about the MIC [1, 9] of the same molecule?
Answer: The MIC was 900 µM.

Question: And the MIC [1, 10]?
Answer: The MIC was 900 µM.

Question: What about the MIC [1, 11] of the same molecule?
Answer: Its MIC is 900 µM.

Question: What about the MIC [2, 12] of the same molecule?
Answer: Its MIC is 900 µM.

Question: What about the MIC [2, 13] of the same molecule?
Answer: Its MIC is 1100 µM.

Question: And the MIC ([2]; pre-induction none)?
Answer: The MIC was 1000 µM.

Question: What about the MIC [2, 14] of the same molecule?
Answer: The MIC was 1000 µM.

Question: For [Cl-].[Cl-].[Zn+2] [Zinc, ZnCl2], which MIC (E. coli JM83; clone JM83, pre-induction none) is on record?
Answer: The MIC was 2000 µM.

Question: What about the MIC [1, 8] of the same molecule?
Answer: The MIC was 1600 µM.

Question: What about the MIC [1, 9] of the same molecule?
Answer: The MIC was 1600 µM.

Question: And the MIC [1, 10]?
Answer: Its MIC is 1600 µM.

Question: What about the MIC [1, 11] of the same molecule?
Answer: Its MIC is 1600 µM.

Question: And the MIC [2, 12]?
Answer: The MIC was 2200 µM.

Question: What about the MIC [2, 13] of the same molecule?
Answer: Its MIC is 2100 µM.

Question: And the MIC ([2]; pre-induction none)?
Answer: Its MIC is 1900 µM.

Question: And the MIC [2, 14]?
Answer: The MIC was 2500 µM.

Question: With [Cl-].[Cl-].[Co+2] [Cobalt, CoCl2] as the molecule, how does the MIC (E. coli JM83) read?
Answer: The MIC was 2100 µM.

Question: What about the MIC [1] of the same molecule?
Answer: The MIC was 2100 µM.

Question: And the MIC ([1]; 40 h at 37° C.)?
Answer: The MIC was 2100 µM.

Question: What about the MIC [2, 12] of the same molecule?
Answer: The MIC was 2100 µM.

Question: And the MIC [2, 13]?
Answer: Its MIC is 2100 µM.

Question: And the MIC ([2]; pre-induction none)?
Answer: Its MIC is 2100 µM.

Question: And the MIC [2, 14]?
Answer: Its MIC is 2100 µM.

B1: czrB: Polypeptide factor from Thermus thermophilus, 291 amino acids (SEQ ID NO: 1), co-expressed in E. coli (protein)
chain: MAEGAARLSLVVALLVLGLKAFAYLLTGSVALLSDALESLVNVAAALAALLALRVARKPPDQNHPFGHTKAEYVSAVLEGVLVVLAALWIAREALPRLLHPVPLEGLGLGLGVSLLASLLNGLLAYHLLKEGRRHRSPALTADGYHVLSDVLTSLGVVLGVGLAGLTGLWVLDPLLALAVAGQILFLGYRIVRESVGGLMDEGLPPEEVERIRAFLQERIRGRALEVHDLKTRRAGPRSFLEFHLVVRGDTPVEEAHRLCDELERALAQAFPGLQATIHVEPEGERKRTNP
modifications: Thermus thermophilus CzrB
Question: For B1, which “levels of zinc in E. coli cells” value (E. coli cells [3]) is on record?
Answer: Its value is “significantly reduce”.

Question: What about the “cell densities attained relative to cells containing just the phagemid vector” value (E. coli cells [4]) of the same molecule?
Answer: Its value is “greater than 2 fold”.

Question: And the “phage titres relative to cultures containing the vector alone” value (E. coli cultures [5])?
Answer: Its value is “two-fold higher”.

Question: And the “amount of functional antibody relative to cultures containing the vector alone” value (E. coli cultures [6])?
Answer: The value was “more than twice”.

Question: What about the “E. coli cell growth relative to cells containing the vector alone” value (E. coli cells [7]) of the same molecule?
Answer: Its value is “same pattern of E. coli cell growth”.

B2: partial czrB: Truncated form of the CzrB protein, 92 amino acids (SEQ ID NO: 2), C-terminal cytoplasmic tail (protein)
chain: MDEGLPPEEVERIRAFLQERIRGRALEVHDLKTRRAGPRSFLEFHLVVRGDTPVEEAHRLCDELERALAQAFPGLQATIHVEPEGERKRTNP
modifications: Thermus thermophilus CzrB
Question: With B2 as the molecule, how does the growth characteristics (E. coli cells [4]) read?
Answer: The growth characteristics was “intermediate between the full-length czrB clone and cells containing the phagemid vector”.

Question: And the “phage titres relative to cultures containing the vector alone” value (E. coli cultures [5])?
Answer: Its value is “intermediate between the full-length gene and the control culture”.

Question: What about the “amount of functional antibody relative to cultures containing the vector alone” value (E. coli cultures [6]) of the same molecule?
Answer: Its value is “intermediate between the full-length gene and the control culture”.
